Laboratory results published in BindingDB's records for doi:10.1111/cbdd.12161 (Dalian University of Technology, 2013).
pKd: −log10 of the molar value.

Target: T1, Induced myeloid leukemia cell differentiation protein Mcl-1 [172-327] (Homo sapiens, UniProt Q07820)
T1 construct: 172-327
Assay: ITC experiments
Conditions: pH 8; 25 °C
Method: ITC experiments were carried out using iTC200 (Microcal LLC, Northampton, MA, USA) with each of the compounds 1-6 and Mcl-1 protein. The heat of reaction was obtained by making 16 injections (2.4 µL each) of the ligand (final concentration in the syringe of 200 µM in 50 mM Tris, 150 mM NaCl, and 5% DMSO, pH 8.0) into the reaction cell that contained Mcl-1 in the same buffer (final protein concentration of 20 µM). The experiments were done at 25°C and at a stirring speed of 500 rpm. For the control experiment, the sample cell was filled with the assay buffer and the compound solution was added, respectively.

T1 sequence (Q07820 172-327): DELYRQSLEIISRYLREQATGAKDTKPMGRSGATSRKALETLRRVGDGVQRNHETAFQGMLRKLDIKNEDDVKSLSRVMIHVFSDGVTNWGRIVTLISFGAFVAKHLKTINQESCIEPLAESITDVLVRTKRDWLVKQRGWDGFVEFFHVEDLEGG

| SMILES | pKd |
| --- | --- |
| O=C1c2ccccc2C(=O)c2cc(O)c(O)cc21 | 5.73 |
| O=C1c2ccc(Sc3ccccc3)cc2C(=O)c2cc(O)c(O)cc21 | 5.83 |
| O=C1c2ccc(Br)cc2C(=O)c2cc(O)c(O)cc21 | 5.74 |

Second part, the compound after the results:

| pKd | SMILES |
| --- | --- |
| 6.02 | Cc1ccc(Sc2ccc3c(c2)C(=O)c2cc(O)c(O)cc2C3=O)cc1 |
| 6.62 | CC(C)c1ccc(Sc2ccc3c(c2)C(=O)c2cc(O)c(O)cc2C3=O)cc1 |
